Experimental data taken from patent publication US5157021A, “Insulin derivatives and pharmaceutical preparations containing these derivatives” (Novo Nordisk A/S, priority 1985, dated 1992).

Tested on: guinea pigs
Assay: Hypoglycemia (blood glucose) in guinea pigs after subcutaneous injection of the insulin preparation
Assay type: in vivo, guinea pig
Description: 25 ml of a medium containing 1.6% (w/v) of glycerol. 0.33% (w/v) of m-cresol, 1/75M of sodium phosphate, pH value 7.3, were prepared. The solution was sterilized by filtration. 1.5 mg of human insulin-B21-methyl ester, prepared as described in Example 1, were suspended in 1.0 ml of medium.
4.5 mg of human insulin-A17-methyl ester were dissolved in 2.7 ml of 0.015M phosphoric acid. 21 mg of sodium chloride and 4.1 μlitres of an aqueous solution of 152 mM zinc chloride were added. The solution was sterilized by filtration. The pH value of the solution was adjusted to 8.0 under aseptic conditions with a sterile aqueous solution of sodium hydroxide. The pH value of the solution was then readjusted to 7.3 with sterile hydrochloric acid, and rhombohedral crystals with a mean size of 10 um were formed with gentle stirring at 21° C. The volume was adjusted to 3 ml with sterile water.
Moreover, a sterile solution of 3 ml of 13.5 mM phosphoric acid in admixture with 21 mg of sodium chloride and 9 μlitres of m-cresol was prepared, and the pH value was adjusted to 7.3 with a sterile aqueous solution of sodium hydroxide. The two solutions were combined.
15 mg of human insulin-A4-gln, obtained as described in Example 5, was dissolved in 10 ml of a solution containing 13.5 mM phosphoric acid, 0.3% m-cresol and 1.6% glycerol. The solution was sterilized by filtration, and the pH value was adjusted to 9,0 with a sterile aqueous solution of sodium hydroxide. The pH value was readjusted to 8.2 with a sterile solution of hydrochloric acid, and human insulin-A4-gln crystallized as rhombohedral crystals with gentle stirring.

[1] = dosage 18 μg/kg, crystalline zinc preparation pH 7.3

Human insulin-B21-methyl ester
protracted insulin action compared with "Insulatard" (subcutaneous, zinc-free suspension 1.5 mg in 1.0 ml medium, pH 7.3): comparable to the hypoglycemia observed after injection of a standard protamin insulin preparation

Human insulin-A4-gln
protracted hypoglycemic effect compared with "Insulatard" at 0.5 IU/kg (subcutaneous injection of crystalline suspension at 0.5 IU/kg): nearly identical both in timing and amplitude

Human insulin-A17-methyl ester
biological activity indicated by area below the blood glucose curve, relative to human insulin [1]: nearly the same biological activity as human insulin | hypoglycemia [1]: strongly protracted hypoglycemia | protracted insulin action compared with "Insulatard" [1]: longer than the protracted action of the known injection preparation
